Laboratory results reported in patent US11447638B2, “Acetalanthraquinone derivatives useful for cellular staining” (BIOSTATUS LIMITED, priority 2016, dated 2022).

Tests used:
A549 live cells = assay: Loading of A549 live cells, wide-field fluorescence microscopy; format: cell-based, human; conditions: 20 μM, 30 min incubation, FIG. 3
Outline: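 Live A549 cells incubated 30 min at 37° C. in the dark with compound at 20 μM (DRAQ5 at 20 μM as reference), imaged unwashed. Uptake and localisation of red fluorescence assessed by low-resolution wide-field fluorescence microscopy, ×10 0.3 NA objective, 30 ms exposure.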

[1] = tested on: fixed human osteosarcoma U-2 OS cells; assay: Labelling of fixed cells, wide-field fluorescence microscopy; format: cell-based; conditions: 20 μM, 1 h exposure in PBS, FIG. 2
Outline: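 U-2 OS cells fixed 24 or 48 h after seeding with 4% paraformaldehyde for 30 min, then labelled with AAQ agents at 20 μM (DRAQ5 20 μM as reference) in PBS at 37° C in the dark. Imaged without washing after 1 h by wide-field fluorescence, ×10 0.3 NA objective, for red signal and cellular location.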

## COC(CC(=O)NCCNc1ccc(NCCN(C)C)c2c1C(=O)c1ccccc1C2=O)OC [BST-110, N-(2-(4-(2-(dimethylamino)ethylamino)-9,10-dioxo-9,10-dihydroanthracen-1-ylamino)ethyl)-3,3-dimethoxypropanamide]
A549 live cells
  fluorescence brightness / background in live cells: very bright cellular fluorescence
[1]
  fluorescence brightness / background in fixed cells: very high background fluorescence
  staining pattern in fixed cells: cytoplasmic staining and heterogeneity on labelling of mitotic figures

## COC(CNC(=O)CCNc1ccc(NCCN(C)C)c2c1C(=O)c1ccccc1C2=O)OC [BST-109, N-(2,2-Dimethoxyethyl)-3-(4-(2-(dimethylamino)ethylamino)-9,10-dioxo-9,10-dihydroanthracen-1-ylamino)propanamide]
A549 live cells
  fluorescence brightness / background in live cells: very bright cellular fluorescence
[1]
  staining pattern in fixed cells: heterogeneity in cytoplasmic staining and positive spots in the nuclei
